The inhibition is the drop in the measured response relative to a control, in per cent. A word on the IC50: it is the concentration at which inhibition is half-maximal. Low readings indicate inhibition by little substance, high ones a need for much substance.

These results are taken from patent US8993616B2, “(aza)indole derivative and use thereof for medical purposes” (Kissei Pharmaceutical Co., Ltd., priority 2007, dated 2015).

Sequence of human URAT1 (Q96S37 whole entry): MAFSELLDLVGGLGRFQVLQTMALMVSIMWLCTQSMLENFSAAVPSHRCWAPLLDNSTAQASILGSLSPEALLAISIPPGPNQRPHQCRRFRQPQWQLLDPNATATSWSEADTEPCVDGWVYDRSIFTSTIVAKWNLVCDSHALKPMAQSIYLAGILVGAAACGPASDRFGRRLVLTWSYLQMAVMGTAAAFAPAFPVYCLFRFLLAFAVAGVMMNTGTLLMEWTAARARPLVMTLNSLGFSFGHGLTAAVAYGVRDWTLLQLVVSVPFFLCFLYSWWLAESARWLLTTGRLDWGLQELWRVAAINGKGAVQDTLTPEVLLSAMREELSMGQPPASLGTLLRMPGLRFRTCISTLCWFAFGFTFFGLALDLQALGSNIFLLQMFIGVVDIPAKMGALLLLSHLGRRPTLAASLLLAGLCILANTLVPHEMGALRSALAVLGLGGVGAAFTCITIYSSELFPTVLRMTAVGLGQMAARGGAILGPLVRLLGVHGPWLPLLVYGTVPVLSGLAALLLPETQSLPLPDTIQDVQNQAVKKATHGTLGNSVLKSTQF

Test system in one experiment: not listed separately
The experiment in a line: Serum hypouricemic effect. In kind it is in vivo. Particulars: 3 mg/kg orally, overnight fasted male CD (SD) IGS rats, 2 hours after administration. How it is done: (1) Method for Measurement
Test compounds at 3 mg/kg suspended in 0.5% methylcellulose solution were administered orally to overnight fasted male CD (SD) IGS rats (5-week-old, Charls River Japan). At 2 hours after administration, blood was collected under ether anesthesia from abdominal aorta, and serum was separated according to general method. Serum uric acid values were determined by use of uric acid measurement kit (Uric acid C-Test Wako: Wako), and percent decrease in uric acid was calculated according to the formula described below.
Percent decrease in uric acid (%)=(Serum uric acid values in control animals—Serum uric acid values in animals administered test compounds)×100/Serum uric acid values in control animals
In the case of `N#Cc1cn(-c2ccc(C(=O)O)c(O)c2)c2cc(F)c(F)cc12` [Example 3, 4-(3-Cyano-5,6-difluoroindol-1-yl)-2-hydroxybenzoic acid], the “Percent decrease in uric acid (hypouricemic effect)” value (“Percent decrease in uric acid” below) is “over 60%”.

As to `N#Cc1cn(-c2ccc(C(=O)O)c(O)c2)c2ccccc12` [Example 188], the “Percent decrease in uric acid” value is “over 60%”.

As for `N#Cc1cn(-c2ccc(C(=O)O)c(O)c2)c2ccc(F)cc12` [Example 191], the “Percent decrease in uric acid” value is reported as “over 60%”.

For `N#Cc1cn(-c2ccc(C(=O)O)c(O)c2)c2cc(F)ccc12` [Example 192], the “Percent decrease in uric acid” value is “over 60%”.

A further experiment addresses human URAT1 (Homo sapiens (Human), UniProt Q96S37). The experiment in a line: Inhibitory activity of uric acid transport with human URAT1 expressing cells. The class given is cell-based. Particulars: COS-7; 10 μM test compound; 14C-labeled uric acid uptake in COS7 cells transiently expressing human URAT1, 5 minutes. How it is done:
(1) Preparation of Transiently Human URAT1 Expressing Cells
Full length human URAT1 cDNA (NCBI Accession No. NM_144585) was subcloned into expression vector, pcDNA3.1 (Invitrogen). Human URAT1 expression vector was transfected into COS7 cells (RIKEN CELL BANK RCB0539) using Lipofectamine 2000. COS7 cells were cultured in collagen-coated 24 well plates (Asahi Techno Glass) at 2×10^5/well in D-MEM culture medium (Invitrogen) containing 10% fetal bovine serum (Sanko Junyaku) for 2 hours at 37° C. under the condition of 5% CO2. For 1 well, 2 μL of Lipofectamine 2000 was diluted in 50 μL of OPTI-MEM (Invitrogen) and allowed to stand at room temperature for 7 minutes (hereinafter referred to as Lipo2000-OPTI). For 1 well, 0.8 μg of human URAT1 expression vector was diluted in 50 μL of OPTI-MEM (Invitrogen) and combined gently with Lipo2000-OPTI. After standing at room temperature for 25 minutes, the mixture was added to COS7 cells at 100 μL/well. […]
All tests were performed on hot-plate at 37° C. […] After mixing, the radioactivity was counted in a liquid scintillation counter (PerkinElmer). The radioactivity in COST cells not transfected with URAT1 expression vector was also counted under the same condition as control. […]
• A: Radioactivity in control • B: Radioactivity in the case of addition of test compounds • C: Radioactivity in COST cells not transfected with URAT1 expression vector
Take `N#Cc1cn(-c2ccc(C(=O)O)c(O)c2)c2cc3c(cc12)OCO3` [Example 194]: testing at 10 µM gave an inhibition of 64%.

Turning to `N#Cc1cn(-c2ccc(C(=O)O)c(O)c2)c2cc(Cl)c(F)cc12` [Example 193], 10 µM produced 47% inhibition.

A further experiment deals with Xanthine oxidase (from bovine milk, Sigma) (Bos taurus (Bovine), UniProt P80457). Nature of the experiment: Xanthine oxidase inhibitory activity. In kind it is biochemical. Particulars: xanthine substrate, 10 minutes at room temperature, absorbance at 290 nm. The method, then: (1) Preparation of Test Compounds
Sequence of Xanthine oxidase (from bovine milk, Sigma) (P80457 whole entry): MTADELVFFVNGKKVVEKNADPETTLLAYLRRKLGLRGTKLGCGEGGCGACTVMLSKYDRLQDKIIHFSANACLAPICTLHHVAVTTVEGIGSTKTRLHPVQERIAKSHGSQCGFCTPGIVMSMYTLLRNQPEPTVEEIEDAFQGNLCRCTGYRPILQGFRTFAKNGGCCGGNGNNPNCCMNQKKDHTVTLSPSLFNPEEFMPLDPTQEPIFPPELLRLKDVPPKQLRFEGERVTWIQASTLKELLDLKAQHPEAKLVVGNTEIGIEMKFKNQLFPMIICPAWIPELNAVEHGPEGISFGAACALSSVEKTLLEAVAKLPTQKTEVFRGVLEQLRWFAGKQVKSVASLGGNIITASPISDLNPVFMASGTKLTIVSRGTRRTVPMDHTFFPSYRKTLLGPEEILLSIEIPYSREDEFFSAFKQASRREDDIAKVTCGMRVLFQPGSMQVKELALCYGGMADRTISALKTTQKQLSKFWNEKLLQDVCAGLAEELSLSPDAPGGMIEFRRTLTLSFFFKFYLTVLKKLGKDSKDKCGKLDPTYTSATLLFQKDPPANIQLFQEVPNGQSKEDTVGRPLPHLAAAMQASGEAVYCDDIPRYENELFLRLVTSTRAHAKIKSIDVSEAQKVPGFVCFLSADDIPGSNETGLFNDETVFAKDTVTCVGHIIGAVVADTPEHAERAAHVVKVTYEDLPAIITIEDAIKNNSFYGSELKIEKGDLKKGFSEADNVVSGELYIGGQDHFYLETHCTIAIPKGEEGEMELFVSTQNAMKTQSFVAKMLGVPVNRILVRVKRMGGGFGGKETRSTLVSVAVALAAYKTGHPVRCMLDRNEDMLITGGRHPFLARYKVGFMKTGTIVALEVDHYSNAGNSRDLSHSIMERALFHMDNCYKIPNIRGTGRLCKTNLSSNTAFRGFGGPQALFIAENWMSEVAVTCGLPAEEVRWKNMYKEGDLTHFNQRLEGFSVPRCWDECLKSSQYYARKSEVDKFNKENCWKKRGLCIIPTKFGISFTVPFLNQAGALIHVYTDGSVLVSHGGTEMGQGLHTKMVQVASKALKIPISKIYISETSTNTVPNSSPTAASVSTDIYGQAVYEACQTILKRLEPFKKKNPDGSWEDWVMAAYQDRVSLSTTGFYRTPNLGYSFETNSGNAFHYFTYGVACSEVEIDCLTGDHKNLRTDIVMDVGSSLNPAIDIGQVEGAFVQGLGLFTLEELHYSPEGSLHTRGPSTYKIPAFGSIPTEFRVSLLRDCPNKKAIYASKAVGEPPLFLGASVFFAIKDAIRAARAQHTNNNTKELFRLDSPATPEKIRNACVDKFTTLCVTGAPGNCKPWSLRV
Test compounds were dissolved in DMSO (Wako) at 40 mM concentration and then diluted to intended concentrations with phosphate-buffered saline (PBS).
(2) Method for Measurement
Xanthine oxidase (from bovine milk, Sigma) was prepared with phosphate-buffered saline (PBS) at 0.02 units/mL, and then the solution was added to 96 well plates at 50 μL/well. In addition, test compounds diluted with PBS were added at 50 μL/well. Xanthine (Wako) at 200 μM prepared with PBS was added at 100 μL/well, and the reaction was conducted for 10 minutes at room temperature. Absorbance at 290 nm was measured using a microplate reader SpectraMax Plus 384 (Molecular device). The absorbance under a condition without xanthine is 0%, and control without test compounds is 100%. Fifty % inhibitory concentration of a test compound (IC50) was calculated (Table 60). Ex. No in the table indicates Example number.
In turn, `N#Cc1cn(-c2ccc(C(=O)O)c(O)c2)c2cc(F)c(F)cc12` [Example 3, 4-(3-Cyano-5,6-difluoroindol-1-yl)-2-hydroxybenzoic acid] returned an IC50 of 6.5 nM.

On to `N#Cc1cn(-c2ccc(C(=O)O)c(O)c2)c2ccccc12` [Example 188], for which the IC50 is 5 nM.

The molecule `N#Cc1cn(-c2ccc(C(=O)O)c(O)c2)c2ccc(F)cc12` [Example 191] came in with an IC50 of 3.9 nM. This IC50 and that of the molecule before are within 1.5-fold of each other.

Turning to `N#Cc1cn(-c2ccc(C(=O)O)c(O)c2)c2cc(C(F)(F)F)ccc12` [Example 195], the half-maximal inhibitory concentration (IC50) was 14.5 nM.

`COc1ccc2c(c1)c(C#N)cn2-c1ccc(C(=O)O)c(O)c1` [Example 196] had an IC50 of 6.7 nM.

As to `Cc1ccc2c(c1)c(C#N)cn2-c1ccc(C(=O)O)c(O)c1` [Example 189], the IC50 turned out to be 13.9 nM.

In turn, `Cc1cc2c(C#N)cn(-c3ccc(C(=O)O)cc3)c2cc1Cl` [Example 295] had an IC50 of 9 nM. This IC50 lies about 1.5-fold lower than the previous one.

With `COc1ccccc1-c1ccc2c(c1)c(C#N)cn2-c1ccc(C(=O)O)cc1` [Example 157], the half-inhibitory concentration (IC50) worked out at 14.1 nM.

As for `N#Cc1cn(-c2ccc(C(=O)O)cc2)c2ccc(/C=C/C(=O)O)cc12` [Example 17, 4-[5-((E)-2-Carboxyvinyl)-3-cyanoindol-1-yl]benzoic acid], the IC50 came out at 12.1 nM.

In turn, `CS(=O)(=O)Nc1ccc2c(c1)c(C#N)cn2-c1ccc(C(=O)O)cc1` [Example 182] showed an IC50 of 16.3 nM.

Molecule `CS(=O)(=O)NCCOc1ccc2c(C#N)cn(-c3ccc(C(=O)O)c(O)c3)c2c1` [Example 238] had an IC50 of 8.3 nM.

Regarding `N#Cc1cn(-c2ccc(C(=O)O)cc2)c2cc(-c3ccccc3)ccc12` [Example 155], 112 nM corresponded to half-maximal inhibition (IC50).

Turning to `N#Cc1cn(-c2ccc(C(=O)O)c(O)c2)c2cc3c(cc12)OCO3` [Example 194], the concentration for half-maximal inhibition (IC50) amounted to 8.3 nM.

For the molecule `N#Cc1cn(-c2ccc(C(=O)O)c(O)c2)c2cc(Cl)c(F)cc12` [Example 193], half-maximal inhibition (IC50) required 4.6 nM.

With `Cc1cc2c(C#N)cn(-c3ccc(C(=O)O)c(O)c3)c2cc1F` [Example 316], half-maximal inhibition (IC50) was put at 10 nM.

In turn, `CC(=O)NCCCOc1ccc2c(C#N)cn(-c3ccc(C(=O)O)c(O)c3)c2c1` [Example 239] displayed an IC50 of 6.5 nM.

Take `N#Cc1cn(-c2ccc(C(=O)O)c(O)c2)c2cc(OCCOc3ccccc3)ccc12` [Example 222]: half-maximal inhibition (IC50) was put at 41.8 nM. This IC50 is about 6.4-fold higher than that of the molecule before.

Take `N#Cc1cn(-c2ccc(C(=O)O)c(O)c2)c2cc(OCCN)ccc12` [Example 9, 4-[6-(2-Aminoethyloxy)-3-cyanoindol-1-yl]-2-hydroxybenzoic acid]: the IC50 was 12.5 nM.

`CCOCCOc1ccc2c(c1)c(C#N)cn2-c1ccc(C(=O)O)cc1` [Example 174] returned an IC50 of 24.4 nM.

`N#Cc1cn(-c2ccc(C(=O)O)c(O)c2)c2cccc(F)c12` [Example 225] came in with an IC50 of 4.6 nM.

As for `N#Cc1cn(-c2ccc(C(=O)O)cc2)c2ccc(C(=O)O)cc12` [Example 29, 4-(5-Carboxy-3-cyanoindol-1-yl)benzoic acid], the IC50 came out at 43.3 nM. Compared with the last molecule, the IC50 is about 9.4-fold higher.

On to `N#Cc1cn(-c2ccc(C(=O)O)c(O)c2)c2cc(O)ccc12` [Example 212], for which the half-inhibitory concentration (IC50) was found to be 5.1 nM.

`N#Cc1cn(-c2ccc(C(=O)O)c(O)c2)c2cc(OCC(=O)O)ccc12` [Example 216] came in with an IC50 of 7.4 nM.

The molecule `Cc1cc2c(C#N)cn(-c3ccc(C(=O)O)cc3)c2cc1F` [Example 298] had a concentration for half-maximal inhibition (IC50) of 12 nM.

Turning to `CN(C)CCOc1ccc2c(C#N)cn(-c3ccc(C(=O)O)c(O)c3)c2c1` [Example 235], the IC50 came to 14.2 nM.

Take `N#Cc1cn(-c2ccc(C(=O)O)cc2)c2ccc(OCCO)cc12` [Example 171]: the half-maximal inhibitory concentration (IC50) was found to be 10.9 nM.

Molecule `N#Cc1cn(-c2ccc(C(=O)O)c(O)c2)c2cc(OCc3cccc(Cl)c3)ccc12` [Example 231] displayed an IC50 of 29.1 nM.

`N#Cc1cn(-c2ccc(C(=O)O)c(O)c2)c2cc(F)ccc12` [Example 192]: the IC50 is 4.3 nM.

Molecule `N#Cc1cn(-c2ccc(C(=O)O)c(O)c2)c2cc(OCCCO)ccc12` [Example 228] registered a concentration for half-maximal inhibition (IC50) of 7.5 nM. This IC50 lies about 1.7-fold higher than the previous one.

In turn, `N#Cc1cn(-c2ccc(C(=O)O)c(O)c2)c2ccc(OCc3ccccc3)cc12` [Example 200] returned a 50% inhibitory concentration (IC50) of 39.4 nM. This IC50 is about 5.3-fold higher than that of the molecule before.

In the case of `N#Cc1cn(-c2ccc(C(=O)O)cc2)c2cccc(OCc3ccccc3)c12` [Example 19, 4-(4-Benzyloxy-3-cyanoindol-1-yl)benzoic acid], the half-inhibitory concentration (IC50) was 96 nM.

The molecule `N#Cc1cn(-c2ccc(C(=O)O)cc2)c2ccc(O)cc12` [Example 152] came in with a concentration for half-maximal inhibition (IC50) of 15.8 nM.

The molecule `N#Cc1cn(-c2ccc(C(=O)O)c(O)c2)c2cccc(O)c12` [Example 203] showed a concentration for half-maximal inhibition (IC50) of 7.1 nM.

As to `N#Cc1cn(-c2ccc(C(=O)O)cc2)c2cccc(-c3ccccc3)c12` [Example 286], half-maximal inhibition (IC50) required 58 nM.

Consider `CCOc1ccc2c(C#N)cn(-c3ccc(C(=O)O)c(O)c3)c2c1` [Example 223], for which the IC50 was found to be 7.5 nM.

Turning to `COCOc1cc(-n2cc(C#N)c3ccccc32)ccc1C(=O)O` [Example 308], the IC50 was found to be 45 nM.

In the case of `COc1cc2c(C#N)cn(-c3ccc(C(=O)O)cc3)c2cc1Cl` [Example 293], 14 nM corresponded to half-maximal inhibition (IC50).

The molecule `N#Cc1cn(-c2ccc(C(=O)O)cc2)c2ccc(OCCOCc3ccccc3)cc12` [Example 175] yielded an IC50 of 22.2 nM.

`COc1ccc(-c2ccc3c(c2)c(C#N)cn3-c2ccc(C(=O)O)cc2)cc1` [Example 15, 4-[3-Cyano-5-(4-methoxyphenyl)indol-1-yl]benzoic acid] showed a half-inhibitory concentration (IC50) of 15.5 nM.

`N#Cc1cn(-c2ccc(C(=O)O)c(O)c2)c2cc(OCC3CCC3)ccc12` [Example 234] had an IC50 of 86.5 nM.

In turn, `N#Cc1cn(-c2ccc(C(=O)O)cc2)c2ccc(CO)cc12` [Example 32, 4-(3-Cyano-5-hydroxymethylindol-1-yl)benzoic acid] yielded an IC50 of 91.1 nM.

`Cc1ccc2c(c1)c(C#N)cn2-c1nc(C)c(C(=O)O)s1` [Example 187] had an IC50 of 16.4 nM.
